Measurements taken from ChEMBL document CHEMBL1131686, “Synthesis and biological activities of topoisomerase I inhibitors, 6-N-amino analogues of NB-506” (Bioorg Med Chem Lett, 1999).

Key:
DNA topoisomerase II = DNA topoisomerase II (Homo sapiens, UniProt P11388+Q02880); assay: In vitro activity against topoisomerase-2 mediated cleavage of supercoiled pBR322 plasmid DNA; type: functional
[1] = molecular target: Epidermal growth factor receptor (Homo sapiens, UniProt P00533); assay: In vitro activity against Epidermal growth factor receptor (using poly(Glu4Tyr1) as a substrate)
P388 [2] = assay: Effect on the formation of protein-DNA complex in P388 cells K+/SDS method; type: functional, Mus musculus
DNA topoisomerase 1 = molecular target: T1, DNA topoisomerase 1 (Homo sapiens, UniProt P11387); assay: In vitro activity against topoisomerase-1 mediated cleavage of supercoiled pBR322 plasmid DNA; type: functional
T1 sequence (P11387 whole entry): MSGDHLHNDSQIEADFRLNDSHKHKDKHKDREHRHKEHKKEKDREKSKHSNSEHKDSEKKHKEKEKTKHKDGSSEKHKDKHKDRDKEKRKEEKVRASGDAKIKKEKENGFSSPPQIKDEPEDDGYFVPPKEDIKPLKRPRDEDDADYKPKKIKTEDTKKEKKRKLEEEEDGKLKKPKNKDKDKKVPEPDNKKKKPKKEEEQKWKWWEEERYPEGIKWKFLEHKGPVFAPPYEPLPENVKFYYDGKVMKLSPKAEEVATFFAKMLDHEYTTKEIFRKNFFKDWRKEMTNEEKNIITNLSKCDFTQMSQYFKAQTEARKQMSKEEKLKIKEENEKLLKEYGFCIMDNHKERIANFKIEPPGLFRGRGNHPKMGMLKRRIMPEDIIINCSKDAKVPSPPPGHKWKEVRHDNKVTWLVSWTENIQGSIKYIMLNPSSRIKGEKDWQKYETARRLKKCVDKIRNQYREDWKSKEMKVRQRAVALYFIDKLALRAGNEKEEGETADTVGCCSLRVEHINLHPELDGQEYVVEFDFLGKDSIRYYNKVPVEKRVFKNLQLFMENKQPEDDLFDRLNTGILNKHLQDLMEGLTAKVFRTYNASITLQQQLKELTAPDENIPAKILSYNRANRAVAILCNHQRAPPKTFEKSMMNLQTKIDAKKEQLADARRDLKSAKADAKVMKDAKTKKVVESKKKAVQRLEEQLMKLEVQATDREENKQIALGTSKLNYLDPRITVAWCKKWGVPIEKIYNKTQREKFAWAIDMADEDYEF

[3] = molecular target: Protein kinase C alpha type (Homo sapiens, UniProt P17252); assay: In vitro activity evaluated against protein kinase C (using histone II-As as a substrate)
MKN-45 [4] = assay: In vitro cytotoxicity (CTX) against human stomach cancer cells (MKN-45) using sulforhodamine B dye-staining method; type: functional, cell-based
P388 [5] = assay: In vitro cytotoxicity (CTX) against murine leukemia cells (P388) using colorimetric tetrazolium-formazan method; type: functional, cell-based; details: Mus musculus
[6] = Lethal dose after intravenous administration (5 times/week for 2 weeks after tumor grew to 0.2 cme3 or larger) in mice; type: toxicity; details: mouse, in vivo, 336 h
[7] = Ratio of LD10 to that of GID75 was determined; expressed as safety margin; type: functional
Mus musculus = assay: Cytotoxicity against human stomach cancer cells (MKN-45) implanted subcutaneously into a side flank of nude mice; type: functional, Cancer cell lines
MKN-45 [8] = assay: Cytotoxicity against human stomach cancer cells (MKN-45) after intravenous administration (5 times/week for 2 weeks after tumor grew to 0.2 cme3 or larger); type: functional, cell-based; details: MKN-45, 336 h

Chain of Epidermal growth factor receptor (P00533 whole entry): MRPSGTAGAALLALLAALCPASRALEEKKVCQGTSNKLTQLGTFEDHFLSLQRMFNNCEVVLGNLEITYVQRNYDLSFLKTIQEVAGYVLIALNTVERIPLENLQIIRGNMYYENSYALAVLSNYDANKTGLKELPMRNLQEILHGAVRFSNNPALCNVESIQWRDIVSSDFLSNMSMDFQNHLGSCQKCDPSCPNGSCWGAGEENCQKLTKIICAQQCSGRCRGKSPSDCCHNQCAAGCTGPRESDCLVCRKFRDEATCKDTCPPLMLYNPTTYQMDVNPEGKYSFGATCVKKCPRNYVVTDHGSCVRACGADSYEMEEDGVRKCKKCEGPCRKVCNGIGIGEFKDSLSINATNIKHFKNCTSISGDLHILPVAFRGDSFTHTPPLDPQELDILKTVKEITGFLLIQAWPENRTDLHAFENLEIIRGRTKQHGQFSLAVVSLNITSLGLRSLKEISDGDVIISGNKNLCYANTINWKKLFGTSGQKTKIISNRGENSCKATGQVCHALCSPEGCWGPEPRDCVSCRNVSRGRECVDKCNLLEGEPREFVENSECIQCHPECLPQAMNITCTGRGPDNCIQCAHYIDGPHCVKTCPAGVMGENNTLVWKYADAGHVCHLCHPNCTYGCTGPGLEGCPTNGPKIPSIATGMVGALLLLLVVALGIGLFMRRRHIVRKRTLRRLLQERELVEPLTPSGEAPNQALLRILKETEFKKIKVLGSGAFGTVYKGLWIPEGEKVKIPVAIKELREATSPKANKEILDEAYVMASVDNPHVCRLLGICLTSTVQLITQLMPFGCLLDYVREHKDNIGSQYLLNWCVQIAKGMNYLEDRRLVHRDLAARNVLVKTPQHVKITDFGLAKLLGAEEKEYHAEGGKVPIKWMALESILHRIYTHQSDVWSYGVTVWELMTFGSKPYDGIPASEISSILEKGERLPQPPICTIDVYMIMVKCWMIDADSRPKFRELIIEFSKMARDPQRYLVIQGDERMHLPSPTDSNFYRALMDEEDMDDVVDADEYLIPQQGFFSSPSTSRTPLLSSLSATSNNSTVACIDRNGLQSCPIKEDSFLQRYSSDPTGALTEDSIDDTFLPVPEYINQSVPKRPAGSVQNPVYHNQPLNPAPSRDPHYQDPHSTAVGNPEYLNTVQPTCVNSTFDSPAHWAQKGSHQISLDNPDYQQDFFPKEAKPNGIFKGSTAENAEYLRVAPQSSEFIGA

SMILES	EC50 (DNA topoisomerase II) [nM]	IC50 [1] [nM]	EC50 (DNA topoisomerase 1) [nM]	IC50 [3] [nM]	EC200 (P388 [2]) [µM]	IC50 (MKN-45 [4]) [nM]	IC50 (P388 [5]) [nM]	LD10 [6] [mg/me2]	Activity [7] [Ratio]	GID75 (Mus musculus) [mg/me2]	IC50 (MKN-45 [8]) [nM]
O=C1c2c(c3c4cccc(O)c4n(C4OC(CO)C(O)C(O)C4O)c3c3[nH]c4c(O)cccc4c23)C(=O)N1NCCO (stereo not given)	> 50000	> 200000	430	> 200000	0.3	3	6	560	2.1	270	3
NC(=O)NN1C(=O)c2c(c3c4cccc(O)c4n(C4OC(CO)C(O)C(O)C4O)c3c3[nH]c4c(O)cccc4c23)C1=O (stereo not given)	> 50000	> 200000	360	> 200000	2.8	270	35				
O=C(O)CNN1C(=O)c2c(c3c4cccc(O)c4n(C4OC(CO)C(O)C(O)C4O)c3c3[nH]c4c(O)cccc4c23)C1=O (stereo not given)	> 50000	> 200000	9500	110000	>10	2900	800				
O=C(NN1C(=O)c2c(c3c4cccc(O)c4n(C4OC(CO)C(O)C(O)C4O)c3c3[nH]c4c(O)cccc4c23)C1=O)c1ccccc1 (stereo not given)		> 200000	52	35000	10	48	12				
CN(C)N1C(=O)c2c(c3c4cccc(O)c4n(C4OC(CO)C(O)C(O)C4O)c3c3[nH]c4c(O)cccc4c23)C1=O (stereo not given)	> 50000	> 200000	> 10000	59000	>10	> 10000	1600				
N#CCC(=O)NN1C(=O)c2c(c3c4cccc(O)c4n(C4OC(CO)C(O)C(O)C4O)c3c3[nH]c4c(O)cccc4c23)C1=O (stereo not given)	> 50000	> 200000	550	65000	20	1900	490				
Cc1ccc(S(=O)(=O)NN2C(=O)c3c(c4c5cccc(O)c5n(C5OC(CO)C(O)C(O)C5O)c4c4[nH]c5c(O)cccc5c34)C2=O)cc1 (stereo not given)	> 50000	> 200000	270	12000	>10						
O=C(NN1C(=O)c2c(c3c4cccc(O)c4n(C4OC(CO)C(O)C(O)C4O)c3c3[nH]c4c(O)cccc4c23)C1=O)c1ccccn1 (stereo not given)	> 50000	> 200000	90	41000	>10	2500	470				
O=C(CO)NN1C(=O)c2c(c3c4cccc(O)c4n(C4OC(CO)C(O)C(O)C4O)c3c3[nH]c4c(O)cccc4c23)C1=O (stereo not given)	> 50000	> 200000	2800	> 200000	5	660	240	> 1500	> 1.3	1200	660
O=C1c2c(c3c4cccc(O)c4n(C4OC(CO)C(O)C(O)C4O)c3c3[nH]c4c(O)cccc4c23)C(=O)N1NCC(O)CO (stereo not given)		180000	1000	> 200000	0.7	79	29	330	1.1	290	79
N#CCCNN1C(=O)c2c(c3c4cccc(O)c4n(C4OC(CO)C(O)C(O)C4O)c3c3[nH]c4c(O)cccc4c23)C1=O (stereo not given)	> 50000	> 200000	70	> 200000	0.9	20	6	640	3.2	200	20
O=C1c2c(c3c4cccc(O)c4n(C4OC(CO)C(O)C(O)C4O)c3c3[nH]c4c(O)cccc4c23)C(=O)N1NC(CO)CO (stereo not given)	> 50000		580	> 200000	0.45	130	17	390	5	78	130
CCNN1C(=O)c2c(c3c4cccc(O)c4n(C4OC(CO)C(O)C(O)C4O)c3c3[nH]c4c(O)cccc4c23)C1=O (stereo not given)	> 50000	> 200000	3500	> 200000	1.2	59	18	> 1500		>1500	59

Now from value to compound, other results behind:

EC50 (DNA topoisomerase II) [nM]	IC50 [1] [nM]	EC50 (DNA topoisomerase 1) [nM]	IC50 [3] [nM]	SMILES	EC200 (P388 [2]) [µM]	IC50 (MKN-45 [4]) [nM]	IC50 (P388 [5]) [nM]	LD10 [6] [mg/me2]	Activity [7] [Ratio]	GID75 (Mus musculus) [mg/me2]	IC50 (MKN-45 [8]) [nM]
> 50000	90000	3000	3800	O=C1NC(=O)c2c1c1c3cccc(O)c3[nH]c1c1c2c2cccc(O)c2n1C1OC(CO)C(O)C(O)C1O (stereo not given)	2	540	44				
> 50000	59000	1200	65000	CCCNN1C(=O)c2c(c3c4cccc(O)c4n(C4OC(CO)C(O)C(O)C4O)c3c3[nH]c4c(O)cccc4c23)C1=O (stereo not given)	6.3	210	55				
> 50000	90000	160	23000	O=C(O)c1ccc(NN2C(=O)c3c(c4c5cccc(O)c5n(C5OC(CO)C(O)C(O)C5O)c4c4[nH]c5c(O)cccc5c34)C2=O)cc1 (stereo not given)	>50	> 10000	6500				
> 50000	> 200000	1000	130000	CC(=O)NN1C(=O)c2c(c3c4cccc(O)c4n(C4OC(CO)C(O)C(O)C4O)c3c3[nH]c4c(O)cccc4c23)C1=O (stereo not given)	2	260	150				
> 50000	> 200000	270	> 200000	NN1C(=O)c2c(c3c4cccc(O)c4n(C4OC(CO)C(O)C(O)C4O)c3c3[nH]c4c(O)cccc4c23)C1=O (stereo not given)	0.5	130	40				
> 50000	> 200000	300	13000	O=C1c2c(c3c4cccc(O)c4n(C4OC(CO)C(O)C(O)C4O)c3c3[nH]c4c(O)cccc4c23)C(=O)N1NCc1cccc(O)c1 (stereo not given)	0.26	12	7				
> 50000	> 200000	580	> 200000	CS(=O)(=O)NN1C(=O)c2c(c3c4cccc(O)c4n(C4OC(CO)C(O)C(O)C4O)c3c3[nH]c4c(O)cccc4c23)C1=O (stereo not given)	>10	270	60				
> 50000	> 200000	480	36000	CCC(=O)NN1C(=O)c2c(c3c4cccc(O)c4n(C4OC(CO)C(O)C(O)C4O)c3c3[nH]c4c(O)cccc4c23)C1=O (stereo not given)	6	190	45				
	> 200000	170	> 200000	CN(C)CC(=O)NN1C(=O)c2c(c3c4cccc(O)c4n(C4OC(CO)C(O)C(O)C4O)c3c3[nH]c4c(O)cccc4c23)C1=O (stereo not given)	>10	460	260				
> 50000	29000	> 3000	40000	O=C1NC(=O)c2c1c1c3cccc(O)c3[nH]c1c1[nH]c3c(O)cccc3c21	3		2000				
> 50000	100000	350	55000	CNN1C(=O)c2c(c3c4cccc(O)c4n(C4OC(CO)C(O)C(O)C4O)c3c3[nH]c4c(O)cccc4c23)C1=O (stereo not given)	2.5	130	75				
	95000	250	6800	O=C(Nc1ccccc1)NN1C(=O)c2c(c3c4cccc(O)c4n(C4OC(CO)C(O)C(O)C4O)c3c3[nH]c4c(O)cccc4c23)C1=O (stereo not given)	>10	250	250				
